Peptide text beside a SMILES is read from it.
Experiments:
SP antibody = assay: competition ELISA for binding of SP antibody to SP fixed on 96-well plate; details: without plasma incubation
Description: The specific operation was as follows: 0.1 μg SP-PEG-DSPE was added to each well of ELISA plate, left overnight at room temperature, washed with PBS for 3 times, sealed with 3% BSA for 1 h, and the BSA solution was sucked off Added SP antibody, incubated at 37° C. for 1 h, washed with PBS for three times, added liposome incubated with serum or PBS in advance and diluted in gradient, incubated at 37° C. for 1 h, washed with PBS for three times, added corresponding horseradish peroxidase labeled secondary antibody, reacted with TMB chromogenic solution for 3-15 min after 1 h, stopped the reaction with 2 M H2SO4, and measured its absorbance value at 450 nm wavelength.

neural cell line PC12 = details: gradient concentration of SP co-cultured with PC12
Source text: Safety evaluation: The gradient concentration of SP was co-cultured with nerve cell line PC12 to evaluate its cytotoxicity in vitro. At the same time, the heart, liver, spleen, lung and kidney tissues of mice in the pharmacodynamic test of orthotopic tumor were dissected and fixed in PBS solution of 4% paraformaldehyde, paraffin-embedded sections were made, stained with HE, observed and photographed under a microscope. the experimental results are shown in FIG. 10.

orthotopic U87 glioma = assay: anti-glioma efficacy: median survival time of orthotopic tumor model mice; assay type: in vivo, nude mice; details: tail vein, adriamycin 2 mg/kg per injection, days 7, 9, 11, 13, 15; saline group 27 days
Description: By injecting SP modified delivery system, unmodified polypeptide delivery system, free drug and normal saline into nude mice bearing orthotopic U87 glioma model via tail vein, the anti-tumor effect of SP modified delivery system in vivo is evaluated with the median survival time, apoptosis of tumor tissue and neovascularization density as indicators.
Establishment of glioma model in nude mice: Took U87 cells in logarithmic growth phase, digested and counted the cells, suspended them with appropriate amount of PBS buffer, inoculated 6×10^5 cells (dispersed in 5 μL PBS buffer) to each nude mouse. The nude mice was anesthetized with 7% chloral hydrate before the experiment, fixed with a brain stereotactic instrument, and inoculated the suspended cells to the striatum (i.e. 0.6 mm forward, 1.8 mm to the right, and 3 mm deep of the anterior fontanelle). Regularly observed the state of nude mice after operation.
Nude mice with orthotopic brain tumor model were randomly divided into 4 groups (n=13), and their body weight was recorded on the 7th, 9th, 11th, 13th and 15th day, respectively.

SMILES	competition for interaction between SP and antibody (SP antibody)	cytotoxicity (neural cell line PC12)	median survival time (orthotopic U87 glioma)
CC[C@H](C)[C@H](NC(=O)[C@H](C)NC(=O)CNC(=O)[C@H](CCCCN)NC(=O)[C@H](CC(N)=O)NC(=O)[C@H](CO)NC(=O)CN)C(=O)N[C@H](C(=O)NCC(=O)N[C@@H](CC(C)C)C(=O)N[C@@H](CCSC)C(N)=O)[C@@H](C)CC [SP] (H-GSNKGAIIGLM-NH2)	can compete for the interaction between SP and antibody	did not show cytotoxicity	–
COc1cccc2c1C(=O)c1c(O)c3c(c(O)c1C2=O)C[C@@](O)(C(=O)CO)C[C@@H]3O[C@H]1C[C@H](N)[C@H](O)[C@H](C)O1 [DOX, adriamycin]	–	–	31 days

Reference: patent US12178885B2, “Method for mediating targeted delivery of a composition to the brain of a subject in need thereof” (Fudan University, priority 2018, dated 2024)
